Reference: PMC3025571 (Nucleic Acids Research, 2010)
Where two headings read alike, the source gives them in different places. Blank lines part the entries; values can stand above or below the compound they belong to.

Target: human FEN1 (Homo sapiens, UniProt P39748)
Experiment: Kinetic fluorogenic
Assay type: biochemical

human FEN1, sequence (P39748 whole entry): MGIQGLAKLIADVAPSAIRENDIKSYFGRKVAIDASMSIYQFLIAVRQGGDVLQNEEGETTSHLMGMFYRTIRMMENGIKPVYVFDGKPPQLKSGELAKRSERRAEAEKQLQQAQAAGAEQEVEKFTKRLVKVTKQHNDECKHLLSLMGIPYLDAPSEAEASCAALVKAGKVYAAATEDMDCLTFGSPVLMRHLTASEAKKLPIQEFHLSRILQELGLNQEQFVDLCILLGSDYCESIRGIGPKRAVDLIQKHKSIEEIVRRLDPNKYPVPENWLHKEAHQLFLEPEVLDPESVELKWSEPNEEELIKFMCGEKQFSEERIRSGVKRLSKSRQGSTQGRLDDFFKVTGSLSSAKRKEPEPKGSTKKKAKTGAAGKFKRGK

- inhibition of FEN1 (concentrations up to 0.67%, data not shown, assay format not specified): not inhibit
SMILES: C[S+](C)[O-] [DMSO, Dimethyl sulfoxide]

- IC50 (average IC50, average of the fluorogenic and AlphaScreen assays): 590 nM
SMILES: O=C(O)C1=CC(=C(c2ccc(O)c(C(=O)O)c2)c2ccc(O)c(C(=O)O)c2)C=CC1=O [ATA, aurintricarboxylic acid]

SMILES: O=C(O)c1cc[c]([Sb](=[O])([OH])[OH])cc1[N+](=O)[O-] [NSC-13755]
- IC50 (read-out: average IC50, average of the fluorogenic and AlphaScreen assays): 930 nM
